From ChEMBL document CHEMBL4414648, “Novel Benzohydroxamate-Based Potent and Selective Histone Deacetylase 6 (HDAC6) Inhibitors Bearing a Pentaheterocyclic Scaffold: Design, Synthesis, and Biological Evaluation” (J Med Chem, 2019)
Active and inactive are the calls of the source. The rule behind the calls is not given here.

Columns and labels:
[1] = Stability in human liver S9 fraction assessed as parent compound remaining at 5 uM after 90 mins in presence of NADPH by LC-MS/MS analysis; assay type: ADME, subcellular; conditions: read-out: Stability
[2] = Stability in rat plasma assessed as parent compound remaining at 100 uM after 4 hrs by LC-MS/MS analysis; assay type: ADME, cell-free; conditions: read-out: Stability
[3] = Stability in human plasma assessed as parent compound remaining at 100 uM after 4 hrs by LC-MS/MS analysis; assay type: ADME, cell-free; conditions: read-out: Stability
[4] = Stability in rat liver S9 fraction assessed as parent compound remaining at 5 uM after 90 mins in presence of NADPH by LC-MS/MS analysis; assay type: ADME, subcellular; conditions: read-out: Stability
Mus musculus = assay: In vivo inhibition of HDAC6 in C57BL/6 mouse assessed as increase in acetylated tubulin level in spleen cytosolic protein extract at 30 mg/kg, ip measured after 24 hrs by ELISA; assay type: functional, organism-based
697 = assay: Cytotoxicity against human 697 cells after 48 hrs by CellTiter 96 aqueous one solution assay; assay type: cell-based; conditions: Homo sapiens, 697, 48 h
PBMC = assay: Cytotoxicity against human PBMC cells after 72 hrs by CellTiter 96 aqueous one solution assay; assay type: cell-based
[5] = Toxicity in C57BL/6 mouse assessed as effect on body weight at 10 mg/kg, ip administered for 5 days/week for two cycles and measured every other day relative to control; assay type: organism-based; conditions: in vivo, 120 h
[6] = Toxicity in C57BL/6 mouse assessed as effect on body weight at 30 mg/kg, ip administered for 5 days/week for two cycles and measured every other day relative to control; assay type: organism-based; conditions: in vivo, 120 h
[7] = Toxicity in C57BL/6 mouse assessed as effect on body weight at 50 mg/kg, ip administered for 5 days/week for two cycles and measured every other day relative to control; assay type: organism-based; conditions: in vivo, 120 h
[8] = Toxicity in C57BL/6 mouse assessed as effect on platelet level at 10 mg/kg, ip administered for 5 days/week for two cycles and measured 60 mins post last dose by cell counter method relative to control; assay type: organism-based; conditions: in vivo, 1 h
[9] = Toxicity in C57BL/6 mouse assessed as effect on platelet level at 30 mg/kg, ip administered for 5 days/week for two cycles and measured 60 mins post last dose by cell counter method relative to control; assay type: organism-based; conditions: in vivo, 1 h
[10] = Toxicity in C57BL/6 mouse assessed as effect on platelet level at 50 mg/kg, ip administered for 5 days/week for two cycles and measured 60 mins post last dose by cell counter method relative to control; assay type: organism-based; conditions: in vivo, 1 h
[11] = Toxicity in C57BL/6 mouse assessed as effect on WBC level at 10 mg/kg, ip administered for 5 days/week for two cycles and measured 60 mins post last dose by beckman coulter counting method relative to control; assay type: organism-based; conditions: in vivo, 1 h
[12] = Toxicity in C57BL/6 mouse assessed as effect on WBC level at 30 mg/kg, ip administered for 5 days/week for two cycles and measured 60 mins post last dose by beckman coulter counting method relative to control; assay type: organism-based; conditions: in vivo, 1 h
[13] = Toxicity in C57BL/6 mouse assessed as effect on WBC level at 50 mg/kg, ip administered for 5 days/week for two cycles and measured 60 mins post last dose by beckman coulter counting method relative to control; assay type: organism-based; conditions: in vivo, 1 h
[14] = Toxicity in C57BL/6 mouse assessed as effect on postural changes up to 50 mg/kg, ip administered for 5 days/week for two cycles and measured daily starting from day 1; assay type: organism-based; conditions: in vivo, 120 h
[15] = Toxicity in C57BL/6 mouse assessed as inactivity/hyperactivity up to 50 mg/kg, ip administered for 5 days/week for two cycles and measured daily starting from day 1; assay type: organism-based; conditions: in vivo, 120 h
[16] = Toxicity in C57BL/6 mouse assessed as induction of kyphosis up to 50 mg/kg, ip administered for 5 days/week for two cycles and measured daily starting from day 1; assay type: organism-based; conditions: in vivo, 120 h
[17] = Toxicity in C57BL/6 mouse assessed as induction of piloerection up to 50 mg/kg, ip administered for 5 days/week for two cycles and measured daily starting from day 1; assay type: organism-based; conditions: in vivo, 120 h
[18] = Toxicity in C57BL/6 mouse assessed as effect on spasms up to 50 mg/kg, ip administered for 5 days/week for two cycles and measured daily starting from day 1; assay type: organism-based; conditions: in vivo, 120 h
[19] = Toxicity in C57BL/6 mouse assessed as effect on stool up to 50 mg/kg, ip administered for 5 days/week for two cycles and measured daily starting from day 1; assay type: organism-based; conditions: in vivo, 120 h
[20] = Toxicity in C57BL/6 mouse assessed as induction of diarrhea up to 50 mg/kg, ip administered for 5 days/week for two cycles and measured daily starting from day 1; assay type: organism-based; conditions: in vivo, 120 h
[21] = Toxicity in C57BL/6 mouse assessed as effect on grooming up to 50 mg/kg, ip administered for 5 days/week for two cycles; assay type: organism-based; conditions: in vivo, 120 h
[22] = Toxicity in C57BL/6 mouse assessed as effect on social behavior up to 50 mg/kg, ip administered for 5 days/week for two cycles; assay type: organism-based; conditions: in vivo, 120 h
[23] = Toxicity in C57BL/6 mouse assessed as induction of leukopenia up to 50 mg/kg, ip administered for 5 days/week for two cycles; assay type: organism-based; conditions: in vivo, 120 h
[24] = Toxicity in ip dosed C57BL/6 mouse administered for 5 days/week for two cycles; assay type: organism-based; conditions: in vivo
[25] = Total clearance in CD-1 mouse at […], iv measured within 6 hrs by LC-MS/MS analysis; assay type: ADME, organism-based; conditions: in vivo
[26] = Apparent volume of distribution at steady state in CD-1 mouse at […], iv measured within 6 hrs by LC-MS/MS analysis; assay type: ADME, organism-based; conditions: in vivo, read-out: Vdss(app)
[27] = Terminal half life in CD-1 mouse at […], iv measured within 6 hrs by LC-MS/MS analysis; assay type: ADME, organism-based; conditions: in vivo, read-out: beta t1/2 (converted)
[28] = Oral bioavailability in CD-1 mouse at 5.2 mg/kg measured within 6 hrs by LC-MS/MS analysis; assay type: ADME, organism-based; conditions: in vivo
[29] = Drug level in CD-1 mouse at […], iv measured after 5 mins by LC-MS/MS analysis; assay type: ADME, organism-based; conditions: in vivo, read-out: Drug uptake
[30] = Cmax in CD-1 mouse at 5.2 mg/kg, po measured within 6 hrs by LC-MS/MS analysis; assay type: ADME, organism-based; set-up: dose 5.2 mg/kg, route oral; conditions: in vivo
[31] = Tmax in CD-1 mouse at 5.2 mg/kg, po measured within 6 hrs by LC-MS/MS analysis; assay type: ADME, organism-based; conditions: in vivo
[32] = Total AUC in CD-1 mouse at 5.2 mg/kg, po measured within 6 hrs by LC-MS/MS analysis; assay type: ADME, organism-based; set-up: dose 5.2 mg/kg, route oral, time AUCmax; conditions: in vivo
[33] = Oral bioavailability in dog; assay type: ADME, organism-based, Canis lupus familiaris; conditions: in vivo
[34] = Oral bioavailability in rat; assay type: ADME, organism-based; conditions: in vivo
[35] = Drug level in C57BL/6 mouse plasma at 30 mg/kg, ip measured after 24 hrs; assay type: ADME, organism-based; conditions: in vivo, BLD = below limit of detection
[36] = Toxicity in C57BL/6 mouse assessed as effect on body temperature up to 50 mg/kg, ip administered for 5 days/week for two cycles and measured daily starting from day 1; assay type: organism-based; conditions: in vivo, 120 h

For O=C(NO)c1ccc(Cn2nnnc2-c2cccs2)cc1, the remaining at […], 5 µM [1] was 100%, the remaining at 4 h, 100 µM [2] was 62% and the remaining at 4 h, 100 µM [3] was 91%. The remaining at […], 5 µM [4] was 82%, the inhibition (Mus musculus) was “Active” and the IC50 697 was over 1000 nM. The IC50 (PBMC) was over 1000 nM, the Activity [5] was 2.2% and the Activity [6] was 3.5%. For the same compound, the Activity [7] was 1.4%, the Activity [8] was -5% and the Activity [9] was -7%. For the same compound, the Activity [10] was -1%, the Activity [11] was -4% and the Activity [12] was -11%. For the same compound, the Activity [13] was -15%, the Activity [14] was “Non-Toxic” and the Activity [15] was “Non-Toxic”. For the same compound, the Activity [16] was “Non-Toxic”, the Activity [17] was “Non-Toxic” and the Activity [18] was “Non-Toxic”. The Activity [19] was “Non-Toxic”, the Activity [20] was “Non-Toxic” and the Activity [21] was “Non-Toxic”. For the same compound, the Activity [22] was “Non-Toxic”, the Activity [23] was “Non-Toxic” and the MTD at 120 h [24] was over 50 mg/kg. It also gave a clearance at 6 h [25] of 172 mL/min/kg, a Vd at 6 h [26] of 4.8 L/kg and a half-life at 6 h [27] of 60 min. It also gave a bioavailability [28] of 19%, a concentration at 5 min [29] of 685 ng/mL and a Cmax [30] of 238 ng/mL. It also gave a Tmax [31] of 4.8 min, an AUC at 6 h [32] of 94 ng·h/mL and a bioavailability [33] of 16%. For the same compound, the bioavailability [34] was 25%, the Drug uptake [35] was “Bld” and the Activity [36] was “Non-Toxic”.
